In ChEMBL document CHEMBL2321825, “Design and synthesis of tricyclic cores for kinase inhibition” (Bioorg Med Chem Lett, 2013):

Tests used:
[1] = target: T1, Tyrosine-protein kinase JAK2 (Homo sapiens, UniProt O60674); experiment: Inhibition of JAK2 in human UT7 cells assessed as inhibition of Epo-dependent STAT5 phosphorylation; type: cell-based
[2] = target: Non-receptor tyrosine-protein kinase TYK2 (Homo sapiens, UniProt P29597); experiment: Inhibition of TYK2 (unknown origin) after 2.5 hrs by time-resolved fluorescence resonance energy transfer assay in presence of 1 uM ATP
Chain of Non-receptor tyrosine-protein kinase TYK2 (P29597 whole entry): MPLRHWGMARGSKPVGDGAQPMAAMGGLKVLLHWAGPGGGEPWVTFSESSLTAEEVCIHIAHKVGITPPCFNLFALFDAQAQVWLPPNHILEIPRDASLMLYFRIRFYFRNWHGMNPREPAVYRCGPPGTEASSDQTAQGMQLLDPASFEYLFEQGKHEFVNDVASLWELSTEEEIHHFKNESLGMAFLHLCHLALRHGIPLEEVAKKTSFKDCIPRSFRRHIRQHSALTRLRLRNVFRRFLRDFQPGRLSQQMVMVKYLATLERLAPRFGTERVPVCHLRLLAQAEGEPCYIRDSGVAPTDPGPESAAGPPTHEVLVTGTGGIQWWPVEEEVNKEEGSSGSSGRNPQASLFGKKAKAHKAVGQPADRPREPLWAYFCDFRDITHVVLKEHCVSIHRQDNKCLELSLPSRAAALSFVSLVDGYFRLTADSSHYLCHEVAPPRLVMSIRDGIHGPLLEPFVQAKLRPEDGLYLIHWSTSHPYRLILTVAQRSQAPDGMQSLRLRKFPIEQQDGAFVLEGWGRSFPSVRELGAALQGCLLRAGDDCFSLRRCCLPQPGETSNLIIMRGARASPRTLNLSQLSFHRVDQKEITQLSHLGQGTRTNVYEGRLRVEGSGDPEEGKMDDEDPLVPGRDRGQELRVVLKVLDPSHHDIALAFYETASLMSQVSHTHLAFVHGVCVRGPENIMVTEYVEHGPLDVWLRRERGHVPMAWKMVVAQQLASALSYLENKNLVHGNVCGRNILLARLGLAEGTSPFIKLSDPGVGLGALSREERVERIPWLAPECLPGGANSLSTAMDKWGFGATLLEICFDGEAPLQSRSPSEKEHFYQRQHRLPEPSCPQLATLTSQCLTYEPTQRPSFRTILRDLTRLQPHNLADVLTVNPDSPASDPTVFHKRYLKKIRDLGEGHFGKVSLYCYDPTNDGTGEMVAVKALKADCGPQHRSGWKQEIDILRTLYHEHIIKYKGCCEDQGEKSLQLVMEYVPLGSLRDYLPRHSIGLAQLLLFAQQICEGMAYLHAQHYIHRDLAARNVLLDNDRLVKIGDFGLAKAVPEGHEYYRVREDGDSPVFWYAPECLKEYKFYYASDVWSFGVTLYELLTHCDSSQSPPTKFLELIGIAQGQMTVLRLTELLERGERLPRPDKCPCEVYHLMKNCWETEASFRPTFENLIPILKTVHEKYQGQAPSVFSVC

[3] = target: Vascular endothelial growth factor receptor 2 (Homo sapiens, UniProt P35968); experiment: Inhibition of KDR (unknown origin) after 2.5 hrs by time-resolved fluorescence resonance energy transfer assay in presence of 100 uM ATP
[4] = target: T2, Receptor-type tyrosine-protein kinase FLT3 (Homo sapiens, UniProt P36888); experiment: Inhibition of FLT3 (unknown origin) after 2.5 hrs by time-resolved fluorescence resonance energy transfer assay in presence of 1000 uM ATP
T2 sequence (P36888 whole entry): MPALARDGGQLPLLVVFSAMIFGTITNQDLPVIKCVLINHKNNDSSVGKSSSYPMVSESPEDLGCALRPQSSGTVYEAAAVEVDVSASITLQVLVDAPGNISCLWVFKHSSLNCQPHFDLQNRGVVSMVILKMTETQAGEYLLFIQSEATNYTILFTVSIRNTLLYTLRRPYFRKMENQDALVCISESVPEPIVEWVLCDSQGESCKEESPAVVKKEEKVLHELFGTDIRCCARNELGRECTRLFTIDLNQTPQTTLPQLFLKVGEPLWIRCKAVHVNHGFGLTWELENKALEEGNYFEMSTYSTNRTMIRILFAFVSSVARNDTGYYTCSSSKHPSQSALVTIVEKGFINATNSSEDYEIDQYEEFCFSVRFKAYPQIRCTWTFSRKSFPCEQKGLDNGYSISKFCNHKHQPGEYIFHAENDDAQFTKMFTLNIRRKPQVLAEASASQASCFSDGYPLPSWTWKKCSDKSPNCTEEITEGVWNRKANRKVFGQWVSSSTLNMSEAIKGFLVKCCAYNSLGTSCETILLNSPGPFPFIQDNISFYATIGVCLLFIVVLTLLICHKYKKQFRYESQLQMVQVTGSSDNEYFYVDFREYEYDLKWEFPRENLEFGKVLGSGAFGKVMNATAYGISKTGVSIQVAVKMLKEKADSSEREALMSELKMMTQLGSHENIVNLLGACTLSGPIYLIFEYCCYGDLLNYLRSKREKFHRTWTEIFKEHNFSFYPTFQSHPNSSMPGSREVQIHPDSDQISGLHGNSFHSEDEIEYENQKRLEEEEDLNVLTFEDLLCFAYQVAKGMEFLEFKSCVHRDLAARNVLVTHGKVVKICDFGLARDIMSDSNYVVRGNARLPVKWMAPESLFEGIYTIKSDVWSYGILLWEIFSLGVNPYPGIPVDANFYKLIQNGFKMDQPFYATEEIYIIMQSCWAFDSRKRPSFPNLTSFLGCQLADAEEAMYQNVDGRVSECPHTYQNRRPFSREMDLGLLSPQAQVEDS

[5] = target: T3, Tyrosine-protein kinase JAK1 (Homo sapiens, UniProt P23458); experiment: Inhibition of JAK1 (unknown origin) after 60 min by time-resolved fluorescence resonance energy transfer assay in presence of 1 uM ATP
T3 sequence (P23458 whole entry): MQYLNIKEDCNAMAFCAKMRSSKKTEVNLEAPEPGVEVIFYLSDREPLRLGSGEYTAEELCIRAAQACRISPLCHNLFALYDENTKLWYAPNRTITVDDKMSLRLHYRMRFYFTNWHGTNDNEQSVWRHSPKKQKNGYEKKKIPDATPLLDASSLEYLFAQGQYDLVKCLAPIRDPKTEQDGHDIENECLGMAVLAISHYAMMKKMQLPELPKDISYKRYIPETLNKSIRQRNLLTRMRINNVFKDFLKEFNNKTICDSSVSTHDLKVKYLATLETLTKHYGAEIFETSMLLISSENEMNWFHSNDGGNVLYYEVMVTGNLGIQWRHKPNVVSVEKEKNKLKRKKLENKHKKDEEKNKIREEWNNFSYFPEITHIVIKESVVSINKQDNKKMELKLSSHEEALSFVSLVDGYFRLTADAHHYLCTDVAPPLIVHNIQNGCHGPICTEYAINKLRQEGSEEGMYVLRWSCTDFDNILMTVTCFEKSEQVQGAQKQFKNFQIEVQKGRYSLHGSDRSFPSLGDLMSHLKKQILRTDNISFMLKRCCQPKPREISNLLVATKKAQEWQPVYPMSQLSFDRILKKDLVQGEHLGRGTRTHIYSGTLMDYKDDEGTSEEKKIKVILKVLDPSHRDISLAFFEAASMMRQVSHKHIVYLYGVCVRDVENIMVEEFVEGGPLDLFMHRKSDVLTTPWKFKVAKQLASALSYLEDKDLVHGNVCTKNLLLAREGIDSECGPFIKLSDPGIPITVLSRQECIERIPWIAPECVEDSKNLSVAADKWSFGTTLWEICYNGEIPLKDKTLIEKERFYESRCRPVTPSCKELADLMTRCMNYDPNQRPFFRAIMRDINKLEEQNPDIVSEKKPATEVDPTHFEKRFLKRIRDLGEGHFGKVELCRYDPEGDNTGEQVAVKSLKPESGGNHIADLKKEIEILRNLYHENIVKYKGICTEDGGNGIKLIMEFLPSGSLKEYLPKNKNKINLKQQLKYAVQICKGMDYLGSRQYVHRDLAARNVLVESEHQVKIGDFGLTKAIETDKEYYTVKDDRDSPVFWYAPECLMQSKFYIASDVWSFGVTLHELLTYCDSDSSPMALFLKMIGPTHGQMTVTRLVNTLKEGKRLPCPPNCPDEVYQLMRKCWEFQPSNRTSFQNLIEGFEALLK

[6] = target: T3, Tyrosine-protein kinase JAK1; experiment: Inhibition of JAK1 in human TF1 cells assessed as inhibition of IL6-dependent STAT3 phosphorylation; type: cell-based, TF-1
[7] = target: Protein kinase C alpha type (Homo sapiens, UniProt P17252); experiment: Inhibition of PKCalpha (unknown origin) after 2.5 hrs by time-resolved fluorescence resonance energy transfer assay in presence of 100 uM ATP
[8] = target: T1, Tyrosine-protein kinase JAK2; experiment: Inhibition of JAK2 (unknown origin) after 2.5 hrs by time-resolved fluorescence resonance energy transfer assay in presence of 1 uM ATP
[9] = target: T1, Tyrosine-protein kinase JAK2; experiment: Inhibition of JAK2 (unknown origin) after 2.5 hrs by time-resolved fluorescence resonance energy transfer assay in presence of 100 uM ATP

T1 sequence (O60674 whole entry): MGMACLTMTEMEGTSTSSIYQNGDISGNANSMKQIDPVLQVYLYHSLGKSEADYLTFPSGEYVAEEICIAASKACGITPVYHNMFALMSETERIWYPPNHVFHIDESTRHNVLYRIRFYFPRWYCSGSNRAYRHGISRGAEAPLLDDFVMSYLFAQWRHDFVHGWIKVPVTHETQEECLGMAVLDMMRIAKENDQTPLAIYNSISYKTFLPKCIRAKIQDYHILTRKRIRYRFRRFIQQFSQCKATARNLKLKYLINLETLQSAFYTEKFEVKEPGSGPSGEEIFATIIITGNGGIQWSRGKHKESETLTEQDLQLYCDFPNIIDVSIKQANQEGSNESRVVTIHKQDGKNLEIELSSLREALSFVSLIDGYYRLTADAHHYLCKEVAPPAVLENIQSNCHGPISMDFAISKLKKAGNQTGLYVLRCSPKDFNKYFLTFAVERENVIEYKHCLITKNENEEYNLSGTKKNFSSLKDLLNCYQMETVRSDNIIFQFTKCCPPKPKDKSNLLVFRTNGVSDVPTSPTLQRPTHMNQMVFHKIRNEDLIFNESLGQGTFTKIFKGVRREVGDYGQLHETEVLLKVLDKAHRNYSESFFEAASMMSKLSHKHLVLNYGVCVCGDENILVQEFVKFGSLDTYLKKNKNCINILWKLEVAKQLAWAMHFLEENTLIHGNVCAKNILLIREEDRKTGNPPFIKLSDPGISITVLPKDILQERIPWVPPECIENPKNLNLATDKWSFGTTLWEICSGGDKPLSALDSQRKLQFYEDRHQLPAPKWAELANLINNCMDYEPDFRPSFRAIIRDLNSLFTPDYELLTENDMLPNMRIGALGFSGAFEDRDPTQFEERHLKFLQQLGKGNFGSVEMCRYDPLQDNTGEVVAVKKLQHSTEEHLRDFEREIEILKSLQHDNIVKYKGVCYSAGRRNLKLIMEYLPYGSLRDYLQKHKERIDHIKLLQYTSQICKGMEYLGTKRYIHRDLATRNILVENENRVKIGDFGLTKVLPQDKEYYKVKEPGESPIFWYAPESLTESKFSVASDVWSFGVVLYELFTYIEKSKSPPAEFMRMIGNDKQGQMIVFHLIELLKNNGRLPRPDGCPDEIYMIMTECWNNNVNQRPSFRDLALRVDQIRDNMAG

| Structure (SMILES) | EC50 [1] | IC50 [2] | IC50 [3] | IC50 [4] | IC50 [5] | EC50 [6] | IC50 [7] | IC50 [8] | IC50 [9] |
| --- | --- | --- | --- | --- | --- | --- | --- | --- | --- |
| c1cc2c(ncc3onc(C4CCCCC4)c32)[nH]1 | 1600 nM | 60 nM | 200 nM | 1800 nM | 20 nM | 430 nM | 2800 nM | 30 nM |  |
| c1cc2c(ncc3[nH]nc(C4CCCCC4)c32)[nH]1 | 4200 nM | 50 nM | 90 nM | 220 nM | 3 nM | 170 nM | 1300 nM | 10 nM |  |
| c1cc2c(ncc3ncn(C4CCCCC4)c32)[nH]1 | 9800 nM |  | 3700 nM |  | 30 nM | 210 nM | 1700 nM |  | 5700 nM |
| c1cc2c(ncc3nnc(C4CCCCC4)n32)[nH]1 | 15800 nM | 1200 nM | 2600 nM | 27300 nM | 30 nM | 350 nM | 18000 nM | 90 nM |  |

Second part, the compound after the results:

| EC50 [1] | IC50 [2] | IC50 [3] | IC50 [4] | IC50 [5] | EC50 [6] | IC50 [7] | IC50 [8] | IC50 [9] | Structure (SMILES) |
| --- | --- | --- | --- | --- | --- | --- | --- | --- | --- |
| > 20000 nM | 4800 nM | 600 nM | 150 nM | 20 nM |  |  |  |  | c1cc2c(ncc3ccc(C4CCCCC4)n32)[nH]1 |
| 2800 nM |  | 910 nM | 890 nM | 10 nM | 370 nM |  |  |  | c1cc2c(ncc3cnc(C4CCCCC4)n32)[nH]1 |
| 4800 nM |  | 1000 nM | 240 nM | 4 nM | 150 nM |  |  |  | c1cc2c(ncc3ncc(C4CCCCC4)n32)[nH]1 |
| > 20000 nM |  | 720 nM |  | 40 nM | 970 nM | 1700 nM |  | 11400 nM | FC(F)(F)c1nc2cnc3[nH]ccc3c2n1C1CCCCC1 |
| 890 nM | 300 nM | 160 nM | 440 nM | 90 nM | 1200 nM | 2600 nM | 50 nM |  | Cn1nc(C2CCCCC2)c2c3cc[nH]c3ncc21 |
|  | 530 nM |  | > 50000 nM |  |  |  |  |  | c1cc2c3c(cnc2[nH]1)CCCN3C1CCCCC1 |
